Laboratory results published in BindingDB's records for doi:10.7270/Q2416VG3 (Nmmlsc, 2010).

Molecular target: T1, Regulator of G-protein signaling 7 (Homo sapiens, UniProt P49802)
T1 sequence (P49802 whole entry): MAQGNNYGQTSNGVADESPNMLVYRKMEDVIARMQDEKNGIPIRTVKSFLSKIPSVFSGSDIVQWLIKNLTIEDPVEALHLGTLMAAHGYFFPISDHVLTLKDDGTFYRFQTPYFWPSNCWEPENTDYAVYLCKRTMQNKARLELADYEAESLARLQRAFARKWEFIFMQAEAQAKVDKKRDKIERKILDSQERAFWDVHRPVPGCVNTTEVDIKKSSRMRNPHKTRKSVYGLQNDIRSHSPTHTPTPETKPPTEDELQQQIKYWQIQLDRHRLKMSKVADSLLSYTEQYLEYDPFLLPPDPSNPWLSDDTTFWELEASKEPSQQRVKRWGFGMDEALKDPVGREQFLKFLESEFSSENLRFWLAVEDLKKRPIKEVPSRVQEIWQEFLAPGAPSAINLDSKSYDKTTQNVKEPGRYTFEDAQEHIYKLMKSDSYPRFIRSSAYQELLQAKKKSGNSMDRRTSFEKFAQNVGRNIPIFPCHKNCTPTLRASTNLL
Assay: small molecules altering RGS7 interaction with Galphao – biochemical, multiplexed bead flow cytometry, SAR compounds, SAR follow-up (AID 2296)
Conditions: not given

SMILES | EC50 [nM]
CN1CCN(C2=C(Cl)C(=O)C(c3cnc(N4CCCCC4)s3)=C(Cl)C2=O)CC1 | 87
CCN=c1scc(C)n1N=Cc1ccc(O)c(O)c1O | 449
CCN(CC)S(=O)(=O)c1cccc(C(=O)NN=Cc2ccc(O)c(O)c2O)c1 | 381
Cc1[nH]n(-c2ccccc2)c(=S)c1C=NCCCN=Cc1c(C)[nH]n(-c2ccccc2)c1=S | 2200
Cc1cccc(N2CCN(C(=O)COc3nsc4nc(C)cc(C)c34)CC2C)c1 (stereo unspecified) | > 30000
Cc1cccc(N2CCN(C(=O)Cn3ccc4nc(C)cc(C)c4c3=O)CC2C)c1 (stereo unspecified) [2,4-dimethyl-6-[2-[3-methyl-4-(3-methylphenyl)piperazin-1-yl]-2-oxidanylidene-ethyl]-1,6-naphthyridin-5-one] | > 30000
Cc1cc(C)c2c(=O)n(CC(=O)N3CCN(c4ccccc4)CC3)ccc2n1 [2,4-dimethyl-6-[2-oxidanylidene-2-(4-phenylpiperazin-1-yl)ethyl]-1,6-naphthyridin-5-one] | 67
Cc1cc(C)c2c(n1)CCN(CC(=O)N1CCN(c3ccccc3)CC1)C2=O [2,4-dimethyl-6-[2-oxidanylidene-2-(4-phenylpiperazin-1-yl)ethyl]-7,8-dihydro-1,6-naphthyridin-5-one] | > 30000
O=c1c2ccccc2sn1-c1ccc(S(=O)(=O)N2CCCC2)cc1 [2-(4-pyrrolidin-1-ylsulfonylphenyl)-1,2-benzothiazol-3-one] | > 30000
Cc1cccc(N2CCN(C(=O)Cn3sc4nc(C)cc(C)c4c3=O)CC2C)c1 (stereo unspecified) [2-[2-keto-2-[3-methyl-4-(m-tolyl)piperazino]ethyl]-4,6-dimethyl-isothiazolo[5,4-b]pyridin-3-one] | > 30000
Cc1cccc(N2CCN(C(=O)COc3noc4nc(C)cc(C)c34)CC2C)c1 (stereo unspecified) [2-[(4,6-dimethyl-[1,2]oxazolo[5,4-b]pyridin-3-yl)oxy]-1-[3-methyl-4-(3-methylphenyl)piperazin-1-yl]ethanone] | > 30000
O=c1c2ccccc2sn1-c1ccccc1 [2-phenyl-1,2-benzothiazol-3-one] | > 30000
CC(NC(=O)c1sc2cc([N+](=O)[O-])ccc2c1Cl)C(C)(C)C (stereo unspecified) [3-chloranyl-N-(3,3-dimethylbutan-2-yl)-6-nitro-1-benzothiophene-2-carboxamide] | > 30000
O=C(NCCCN1CCOCC1)c1sc2cc([N+](=O)[O-])ccc2c1Cl [3-chloranyl-N-(3-morpholin-4-ylpropyl)-6-nitro-1-benzothiophene-2-carboxamide] | > 30000
COC(=O)CCC(=O)Nc1sc(C)c(C)c1C(N)=O [4-[(3-carbamoyl-4,5-dimethyl-2-thienyl)amino]-4-keto-butyric acid methyl ester] | > 30000
CCN(CC)S(=O)(=O)c1cccc(-c2n[nH]c(=S)n2N=Cc2ccc(C(=O)OC)cc2)c1 [4-[(E)-[3-[3-(diethylsulfamoyl)phenyl]-5-thioxo-1H-1,2,4-triazol-4-yl]iminomethyl]benzoic acid methyl ester] | > 30000
NS(=O)(=O)c1ccc(N=NCc2ccc(O)c(O)c2O)c([N+](=O)[O-])c1 [4-[[(E)-(2,3-dihydroxy-4-oxo-1-cyclohexa-2,5-dienylidene)methyl]hydrazo]-3-nitrobenzenesulfonamide] | 141
CCOC(=O)c1sc(NC(=O)CSc2nnc(Cc3ccccc3)o2)c(C#N)c1C [4-cyano-3-methyl-5-[[1-oxo-2-[[5-(phenylmethyl)-1,3,4-oxadiazol-2-yl]thio]ethyl]amino]-2-thiophenecarboxylic acid ethyl ester] | > 30000
CN=c1scc(C)n1N=Cc1ccc(O)c(O)c1O [(4E)-2,3-dihydroxy-4-[[(4-methyl-2-methylimino-1,3-thiazol-3-yl)amino]methylidene]cyclohexa-2,5-dien-1-one] | 244
Cc1[nH]n(-c2ccccc2)c(=S)c1/C=N/c1cccc([N+](=O)[O-])c1 [(4E)-5-methyl-4-[(3-nitroanilino)methylene]-2-phenyl-2-pyrazoline-3-thione] | > 30000
Cc1cccc(N2CCN(C(=O)CN3CCc4nc(C)cc(C)c4C3=O)CC2C)c1 (stereo unspecified) [KUC103675N] | > 30000
CC(=O)OCCCNc1cc(Sc2nc3ccccc3s2)c2nonc2c1[N+](=O)[O-] [MLS000521052] | > 30000
Cc1cc(Cl)ccc1/N=c1/ssnc1Cl [MLS000539990] | > 30000
O=C1C(Cl)=C(N2CCCCC2)C(=O)C(Cl)=C1c1cnc(N2CCCCC2)s1 [MLS000550549] | 158
CCC(=O)NC(c1ccc(C)cc1)c1cc([N+](=O)[O-])c2cccnc2c1O (stereo unspecified) [MLS000553854] | 4410
COc1ccc(C2=CC(=O)C=CC2=O)cc1 [MLS001029846] | 356
O=C(COc1ccccc1C(=O)NN=Cc1ccc(O)c(O)c1)NN=Cc1ccc(O)c(O)c1 [N''-[(Z)-(3-hydroxy-4-oxo-1-cyclohexa-2,5-dienylidene)methyl]-2-[2-[[(Z)-(3-hydroxy-4-oxo-1-cyclohexa-2,5-dienylidene)methyl]hydrazo]-2-oxoethoxy]benzohydrazide] | > 30000
CC1(C)OC(=O)C(=Cc2ccc(-c3ccc(S(N)(=O)=O)cc3)o2)C(=O)O1 [SMR000273939] | 1870
O=C(Cc1csc(N2CCOCC2)n1)NN=Cc1ccc(O)c(O)c1O [SMR000369439] | 421
Nc1c(C(=O)NCC2CCCO2)sc2nc3c(c(-c4ccco4)c12)CC/C3=C/c1ccco1 (stereo unspecified) [UNM-0000305796] | 146

Same assay, conditions: inactive by the depositor's call

SMILES | EC50 [nM]
CCOc1ccccc1-c1c2cc(O)c(=O)cc-2oc2cc(O)c(O)cc12 [MLS000578271] | 3570
